Test results from PMC9500755, “Albumin-Mediated Size Exclusion Chromatography: The Apparent Molecular Weight of PSMA Radioligands as Novel Parameter to Estimate Their Blood Clearance Kinetics” (Pharmaceuticals, 2022).
Where “and” joins values, the source holds several entries; their conditions need not be identical. Equal entries are not always repeated.

Tests used:
[1] = target: T1, human serum albumin (HSA) (Homo sapiens, UniProt P02768); assay: Albumin-mediated size exclusion chromatography (AMSEC); format: in vitro ADME; conditions: for tR,AMSEC (retention time in AMSEC run): 177Lu-labeled ligand, mobile phase 700 µM HSA in PBS pH 7.4, Superdex 75 Increase, corrected for detector offset, normalized to column 1; for Retention factor k: fraction of time the radioligand is complexed to HSA during the AMSEC run, Equation (2); for MWapp,raw (raw apparent molecular weight): from tR,AMSEC by column calibration, 700 µM HSA in PBS pH 7.4; for MWapp,norm. (normalized apparent molecular weight): from tR,norm. by column calibration; for tR,norm. (normalized retention time): normalized with tR,blank, tR,HSA and tR,acetone, Equation (5); for MWapp,raw in percentage of the MWapp,raw of rhPSMA-7.3: rhPSMA-7.3 = 100%
T1 construct: purchased Biowest, Nuaillé, France
Procedure: All size exclusion chromatographic (SEC) experiments were carried out using the above-mentioned HPLC system equipped with a Superdex 75 Increase 10/300 GL gel filtration size exclusion column (fractionation range 70–3 kDa, GE Healthcare, Uppsala, Sweden). Eluents at room temperature, a constant flow rate of 0.8 mL/min, and an acquisition time of 35 min were generally applied. The column was calibrated as recommended by the manufacturer using a commercially available set of proteins (Gel Filtration LMW Calibration Kit, GE Healthcare, Buckinghamshire, UK). Retention times of calibration proteins and calculated calibration parameters are given in the Supplementary Materials (Table S3). UV signal detection occurred at 280 nm.
All retention times of radio signals were corrected for the offset between the UV-vis detector and radio-detector (Δt = 0.084 min). Throughout the development of the AMSEC method, three gel filtration columns of the same type were used for experiments (most data were acquired using column 1). As calculations were based on absolute empirical retention times that inherently differed slightly from column to column, all retention times determined on column 2 and column 3 were mathematically converted to an equivalent retention time on column 1 using the columns’ calibration parameters. A detailed description of these calculations is provided in the Supplementary Materials.
All numerical retention times explicitly given in running text or tables and plotted in diagrams are already corrected for the offset between UV-vis and radio-detector and, if initially determined on columns 2 or 3, converted to the equivalent retention time on column 1 (for detailed information, see Equations (S1) and (S2) and Table S1 in the Supplementary Materials).
AMSEC runs were executed with a solution of HSA (Biowest, Nuaillé, France) in PBS (pH 7.4) at physiological concentration (700 µM) as a mobile phase. Upon injection of approximately 1.0 MBq (5–10 µL) of a radioligand, the elution profile was monitored via radioactivity detection, and the retention times of observed radiopeaks (tR,AMSEC) were determined via semi-automated peak integration. By means of calibration, retention times were translated into a ligand-specific raw apparent molecular weight (MWapp,raw) as a parameter to assess the extent of HSA binding (for calculation, see Equation (S6) in the Supplementary Materials). rhPSMA-7.3 served as an internal standard during AMSEC studies and was co-evaluated whenever new data were collected to assess the reproducibility of the method (n = 14).
For reference purposes, conventional SEC runs of HSA (100 µL, 3 mg/mL) and acetone (100 µL, 2% in PBS pH 7.4) with PBS (pH 7.4) as a mobile phase were executed. The retention time of HSA (tR,HSA) corresponded to the maximal MWapp,raw, theoretically observable in AMSEC runs in the case of continuous binding of a radioligand to HSA (equivalent to 100% HSA binding). The retention time of acetone (tR,acetone) served as a reference for a ligand with no interaction with HSA in AMSEC runs (equivalent to 0% HSA binding) and an actual physical molecular weight below the column fractionation range (this was the case for all investigated radioligands).
(§1) MWapp,raw values determined as described in Section 3.3.1. were normalized in order to account for ligand-specific influences on experimentally determined retention times and to establish quantitative comparability of the obtained MWapp,norm. values. The normalization was based on a SEC run (referred to as blank run) of a radioligand executed in analogy to the AMSEC run but using PBS (pH 7.4) without HSA as a mobile phase. The determined retention time tR,blank, together with the retention time tR,AMSEC from the AMSEC run, tR,HSA, and tR,acetone determined in Section 3.3.1, were used to calculate a normalized retention time tR,norm. for every radioligand (for formulae and details on the calculation, see Section 2. Results and Discussion). […]

[2] = Blank SEC run of radioligand (PBS pH 7.4 without HSA); format: physicochemical
Procedure: To validate this hypothesis, blank runs (PBS pH 7.4 as mobile phase) of the radioligands on the SEC column were performed. The resulting retention times were termed tR,blank and represent the ligand-specific retention time that would correspond to 0% HSA binding in the AMSEC experiment. […] We concluded that unspecific electrostatic interactions between the highly negatively charged radioligand and the agarose/dextran-based matrix of the superdex column are present and lead to an elution prior to the expected cut-off volume. Consequently, apart from the radioligand’s binding to HSA in the AMSEC run, the unspecific interactions with the column matrix contribute to the determined MWapp,raw, thus hampering its informative value. […]
as §1, with “The normalization was based on a SEC run (referred to as blank run) of a radioligand executed in analogy to the AMSEC run but using PBS (pH 7.4) without HSA as a mobile phase.” left out

[3] = Calculated glomerular sieving coefficients (GSCcalc) from MWapp,norm.; conditions: from MWapp,norm. via sigmoidal fit of MW vs GSC of 12 human plasma proteins
Excerpt: Therefore, when comparing the MWapp,norm. of different radioligands, not only their relative difference but also the absolute values of MWapp,norm. are of importance. […] These GSCcalc determined for all the PSMA radioligands (Table 2, Figure 5) inherently account for the exponential nature of the relationship between their albumin-mediated MWapp,norm. and MW-dependent GF and could, therefore, be a useful parameter to estimate differences in blood clearance by means of GF. The GSC is defined as the ratio of a compound’s concentration in the glomerular filtrate to that in the blood; thus, a GSC of 1 represents unhindered filtration through the capillary membrane in the glomerulus, while a lower GSC corresponds to a restricted filtration and, thus, a prolonged circulatory half-life. […] As an example, a GSCcalc of 0.408 was determined for rhPSMA-7.3, while an almost three-fold smaller GSCcalc of 0.138 was determined for rhPSMA-7.4. […] This would constitute a dramatic physiological effect that, in its extent, could not be predicted only based on subtle differences in molecular structure and other conventionally determined in vitro parameters. We, therefore, believe that the MWapp,norm. and GSCcalc obtained by AMSEC could be important parameters that, already at the preclinical stage of development, could help in the selection of promising therapeutic radioligands with pharmacokinetic profiles suitable for patient application.
A sigmoidal fit of molecular weights (MWs, in kDa) and corresponding glomerular sieving coefficients (GSCs) of 12 human plasma proteins (data taken from Norden et al.) was executed using OriginPro software. A dose-response model based on Equation (6) was applied:(6) GSC=A1+A2−A1/1+10^(LOGx0−MW)·p.
The values of bottom asymptote A1 and top asymptote A2 were set to 4.2∙10^−5 (GSC of IgG, data taken from Norden et al.) and 1 (equaling complete sieving), respectively. Curve fitting gave the center parameter LOGx0 = 19.36833 and the Hill slope p = −0.12108. GSCcalc values were calculated via implementation of fitting parameters and the experimentally determined MWapp,norm. in Equation (6).

[4] = design: method as in PMID 34531260; conditions: 177Lu-labeled, intrapatient comparison vs PSMA-I&T; cited from earlier work

T1 sequence (P02768 25-609): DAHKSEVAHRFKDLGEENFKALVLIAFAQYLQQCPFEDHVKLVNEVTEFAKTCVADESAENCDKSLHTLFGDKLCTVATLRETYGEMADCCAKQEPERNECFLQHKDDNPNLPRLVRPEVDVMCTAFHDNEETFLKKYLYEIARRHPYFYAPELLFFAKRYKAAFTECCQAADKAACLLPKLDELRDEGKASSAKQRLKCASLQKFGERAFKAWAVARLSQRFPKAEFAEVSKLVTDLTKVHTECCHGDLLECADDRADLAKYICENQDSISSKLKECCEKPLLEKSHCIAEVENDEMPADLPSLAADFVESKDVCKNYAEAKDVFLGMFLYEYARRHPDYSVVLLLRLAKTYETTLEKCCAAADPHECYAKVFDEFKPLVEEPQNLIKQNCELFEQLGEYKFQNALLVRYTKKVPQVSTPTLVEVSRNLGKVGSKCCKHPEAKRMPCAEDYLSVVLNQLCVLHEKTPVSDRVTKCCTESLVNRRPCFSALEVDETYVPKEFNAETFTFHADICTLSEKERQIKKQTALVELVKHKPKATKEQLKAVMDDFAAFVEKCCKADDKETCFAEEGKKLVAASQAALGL

| Structure (SMILES) | tR,AMSEC (retention time in AMSEC run) [1] | Relative reduction in MWapp,norm. compared to MWapp,raw ([1]; effect of normalization) | Retention factor k [1] | MWapp,raw (raw apparent molecular weight) [1] | MWapp,norm. (normalized apparent molecular weight) [1] | tR,norm. (normalized retention time) [1] | MWapp,raw in percentage of the MWapp,raw of rhPSMA-7.3 [1] | tR,blank (retention time in blank run) ([2]; PBS pH 7.4 without HSA as mobile phase, corresponds to 0% HSA binding) [min] | GSCcalc (calculated glomerular sieving coefficient) [3] | MWapp,norm. higher than that of the stereoisomer ([1]; rhPSMA-7.2 vs rhPSMA-7.1, rhPSMA-10.1 vs rhPSMA-10.2) [%] | mean MWapp,raw ([1]; mean ± SD, n = 14) [kDa] | MW mathematically corresponding to tR,blank ([2]; PBS pH 7.4 without HSA) [kDa] | tumor dose relative to PSMA-I&T [4] [fold] |
| --- | --- | --- | --- | --- | --- | --- | --- | --- | --- | --- | --- | --- | --- |
| O=C(O)CC[C@H](NC(=O)N[C@@H](CCCCNC(=O)CCCCCCC(=O)NCCCC[C@@H](NC(=O)[C@@H](Cc1ccccc1)NC(=O)[C@@H](Cc1ccc(O)c(I)c1)NC(=O)CCC(C(=O)O)N1CCN(CC(=O)O)CCN(CC(=O)O)CCN(CC(=O)O)CC1)C(=O)O)C(=O)O)C(=O)O (stereo partly shown) (177Lu complex, metal not drawn) [PSMA-I&T, reference compound] | 20.983 min | around 60% | 0.0013 and 0.001 | 5.4 kDa | 1.9 kDa | 24.792 min | approximately 18% | 20.995 | – | – | – | – | – |
| CC(C)(C)[Si](F)(c1ccc(C(=O)NC[C@@H](NC(=O)CC[C@H](C(=O)O)N2CCN(CC(=O)[O-])CCN(CC(=O)[O-])CCN(CC(=O)[O-])CC2)C(=O)N[C@H](CCCCNC(=O)CCC(=O)NCCC[C@@H](NC(=O)CC[C@H](NC(=O)N[C@@H](CCC(=O)O)C(=O)O)C(=O)O)C(=O)O)C(=O)O)cc1)C(C)(C)C.[177Lu+3] [rhPSMA-7.1] | 15.240 min | – | 0.613 | 26.5 kDa | 17.1 kDa | 16.824 min | – | – | 0.655 | – | – | – | – |
| CC(C)(C)[Si](F)(c1ccc(C(=O)NC[C@H](NC(=O)CC[C@H](C(=O)O)N2CCN(CC(=O)[O-])CCN(CC(=O)[O-])CCN(CC(=O)[O-])CC2)C(=O)N[C@H](CCCCNC(=O)CCC(=O)NCCC[C@@H](NC(=O)CC[C@H](NC(=O)N[C@@H](CCC(=O)O)C(=O)O)C(=O)O)C(=O)O)C(=O)O)cc1)C(C)(C)C.[177Lu+3] [rhPSMA-7.2] | 14.564 min | – | 0.680 | 32.0 kDa | 21.7 kDa | 15.962 min | – | – | 0.344 | 27 | – | – | – |
| CC(C)(C)[Si](F)(c1ccc(C(=O)NC[C@@H](NC(=O)CC[C@@H](C(=O)O)N2CCN(CC(=O)[O-])CCN(CC(=O)[O-])CCN(CC(=O)[O-])CC2)C(=O)N[C@H](CCCCNC(=O)CCC(=O)NCCC[C@@H](NC(=O)CC[C@H](NC(=O)N[C@@H](CCC(=O)O)C(=O)O)C(=O)O)C(=O)O)C(=O)O)cc1)C(C)(C)C.[177Lu+3] [rhPSMA-7.3] | 14.722 min and 14.722 ^3 min | – | 0.667 ^1 | 30.6 ^3 kDa | 20.7 kDa and 20.7 ^1 kDa | 16.125 ^1 min | – | – | 0.408 | – | 30.6 | 6.0 | 2.4 |
| CC(C)(C)[Si](F)(c1ccc(C(=O)NC[C@H](NC(=O)CC[C@@H](C(=O)O)N2CCN(CC(=O)[O-])CCN(CC(=O)[O-])CCN(CC(=O)[O-])CC2)C(=O)N[C@H](CCCCNC(=O)CCC(=O)NCCC[C@@H](NC(=O)CC[C@H](NC(=O)N[C@@H](CCC(=O)O)C(=O)O)C(=O)O)C(=O)O)C(=O)O)cc1)C(C)(C)C.[177Lu+3] [rhPSMA-7.4] | 14.143 min | – | 0.729 | 36.0 kDa | 26.0 kDa | 15.316 min | ~120% | – | 0.138 | – | – | – | – |
| CC(C)(C)[Si](F)(c1ccc(C(=O)NC[C@H](NC(=O)CN2CCN(CC(=O)[O-])CCN(CC(=O)[O-])CCN(CC(=O)[O-])CC2)C(=O)N[C@H](CCCCNC(=O)CCC(=O)NCCC[C@@H](NC(=O)CC[C@H](NC(=O)N[C@@H](CCC(=O)O)C(=O)O)C(=O)O)C(=O)O)C(=O)O)cc1)C(C)(C)C.[177Lu+3] [rhPSMA-10.2] | 15.908 min | – | 0.543 | 22.0 kDa | 13.2 kDa | 17.736 min | – | – | 0.846 | – | – | – | – |
